The text below walks through data of US7367933B2, “Screening of chemical compounds purified from biological sources” (Sequoia Sciences, Inc., priority 1999, dated 2008).

Structures are written as SMILES.

Assay [1] relates to MCF7 breast cancer, NCI-H460 lung cancer, and SF-268 CNS cancer. Put plainly: NCI in vitro 3-cell-line anticancer panel (overall statement). The assay is classed as cell-based. To be noted: NCI 3-cell-line panel. As for the experimental part:
(§1) In vitro cytotoxicity tests were conducted at the NCI using an in vitro 3-cell-line panel consisting of MCF7 breast cancer, NCI-H460 lung cancer, and SF-268 CNS cancer. Each cell line was inoculated and incubated in microtiter plates. After 24 hours test samples were added to a final assay concentration of 2 μg/mL and the culture was incubated for 48 hours. Results for each test sample were reported as the percentage of growth of the treated cells when compared to untreated controls. Compounds which reduced the growth of any one of the cell lines […] against standard were considered to be active.

Assay [2] relates to B16 melanoma. To be noted: previously reported for compounds from stem bark of Taxus baccata; cited from earlier work.
Assay [3] has as its system MCF7 breast cancer. Put plainly: NCI in vitro cytotoxicity test, 3-cell-line panel: MCF7. It counts as cell-based. To be noted: 2 μg/mL, 48 hours incubation; less than 32% = active. The procedure:
as §1

Assay [4] has as its system NCI-H460 lung cancer. Put plainly: NCI in vitro cytotoxicity test, 3-cell-line panel: NCI-H460. The assay is classed as cell-based. To be noted: 2 μg/mL, 48 hours incubation; less than 32% = active. As for the experimental part:
as §1

Assay [5] relates to SF-268 CNS cancer. Put plainly: NCI in vitro cytotoxicity test, 3-cell-line panel: SF-268. The conditions noted are these: 2 μg/mL, 48 hours incubation; less than 32% = active. The assay is classed as cell-based. As for the experimental part:
as §1

For `CCCCCC(=O)N[C@@H](c1ccccc1)[C@@H](O)C(=O)O[C@H]1C[C@@]2(O)[C@@H](OC(=O)c3ccccc3)[C@@H]3[C@]4(OC(C)=O)CO[C@@H]4C[C@H](O[C@@H]4OC[C@@H](O)[C@H](O)[C@H]4O)[C@@]3(C)C(=O)[C@H](OC(C)=O)C(=C1C)C2(C)C` [7-(β-xylosyl)-taxol C], the “anticancer activity in the 3-cell-line anticancer panel (in words)” value (from here on “anticancer activity”) in assay [1] is given as “active”. In assay [2], the “activity against B16 melanoma (in words)” value is reported as “potent activity”.
`C/C=C(\C)C(=O)N[C@@H](c1ccccc1)[C@@H](O)C(=O)O[C@H]1C[C@@]2(O)[C@@H](OC(=O)c3ccccc3)[C@@H]3[C@]4(OC(C)=O)CO[C@@H]4C[C@H](O)[C@@]3(C)C(=O)[C@H](OC(C)=O)C(=C1C)C2(C)C` [Cephalomanine]: the “MCF-7 Breast cancer, percentage of growth (One Dose Primary Anticancer Assay)” value (from here on “MCF-7 Breast cancer, percentage”) in assay [3] came out at 15%. The “H-460 Lung cancer, percentage of growth (One Dose Primary Anticancer Assay)” value (“H-460 Lung cancer, percentage of growth” below) in assay [4] was 19%. Moreover, the “SF-268 CNS cancer, percentage of growth (One Dose Primary Anticancer Assay)” value (shortened to “SF-268 CNS cancer, percentage of growth”) in assay [5] came out at 30%.
As to `CC(=O)O[C@H]1C(=O)[C@@]2(C)[C@H]([C@H](OC(=O)c3ccccc3)[C@]3(O)C[C@H](OC(=O)[C@H](O)[C@@H](NC(=O)c4ccccc4)c4ccccc4)C(C)=C1C3(C)C)[C@]1(OC(C)=O)CO[C@@H]1C[C@@H]2O` [TX003-17, paclitaxel], in assay [3], the “MCF-7 Breast cancer, percentage” value came out at 21%. For the same molecule, in assay [4], the “H-460 Lung cancer, percentage of growth” value worked out at 30%. Moreover, the “SF-268 CNS cancer, percentage of growth” value in assay [5] amounted to 29%. In assay [1], the “anticancer activity” value is “exhibited activity in all three cell lines”.
With `CC(=O)O[C@H]1C(=O)[C@@]2(C)[C@H]([C@H](OC(=O)c3ccccc3)[C@]3(O)C[C@H](OC(=O)[C@H](O)[C@@H](NC(=O)c4ccccc4)c4ccccc4)C(C)=C1C3(C)C)[C@]1(OC(C)=O)CO[C@@H]1C[C@@H]2O` [Paclitaxel], the “MCF-7 Breast cancer, percentage” value in assay [3] amounted to 23%. For the same molecule, the “H-460 Lung cancer, percentage of growth” value in assay [4] is reported as 13%. Besides, in assay [5], the “SF-268 CNS cancer, percentage of growth” value stood at 30%.
As for `CC(=O)O[C@H]1C(=O)[C@]2(C)[C@@H](O[C@@H]3OC[C@@H](O)[C@H](O)[C@H]3O)C[C@H]3OC[C@@]3(OC(C)=O)[C@H]2[C@H](OC(=O)c2ccccc2)[C@]2(O)C[C@H](OC(=O)[C@H](O)[C@@H](NC(=O)c3ccccc3)c3ccccc3)C(C)=C1C2(C)C` [7-(β-xylosyl)-taxol], the “anticancer activity” value in assay [1] is given as “active”. The “activity against B16 melanoma (in words)” value in assay [2] is on record as “potent activity”.
Take `CCCCCC(=O)N[C@@H](c1ccccc1)[C@@H](O)C(=O)O[C@H]1C[C@@]2(O)[C@@H](OC(=O)c3ccccc3)[C@@H]3[C@]4(OC(C)=O)CO[C@@H]4C[C@H](O[C@@H]4OC[C@@H](O)[C@H](O)[C@H]4O)[C@@]3(C)C(=O)[C@H](O)C(=C1C)C2(C)C` [7-(β-xylosyl)-10-deacetyltaxol C]: in assay [1], the “anticancer activity” value was “active”. Besides, the “activity against B16 melanoma (in words)” value in assay [2] is “potent activity”.
